Measurements: ChEMBL document CHEMBL1201862, “PubChem BioAssay data set” (2004)
Calls of active or inactive are those of the source.

Experiments:
[1] = cytotoxicity in HMLE control line with eGFP shRNA, dose response, counter-screen for HMLE_sh_ECad selective toxicity project, cell-based, HMLE_sh_eGFP, luminescence (AID 463074); assay type: functional, Homo sapiens;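 also: HMLE human mammary epithelial cells expressing control shRNA against eGFP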
[2] = Luminescence Cell-Based Dose Retest to Confirm Inhibitors of Cancer Stem Cells. [Related pubchem assays (depositor defined):AID2717, AID2721]; assay type: functional; settings: Homo sapiens
BJ [3] = experiment: cytotoxicity toward BJ-TERT fibroblasts, dose response, cell-based, RAS-independent, luminescence (AID 1933); assay type: functional; settings: Homo sapiens
BJ [4] = experiment: cytotoxicity toward BJ-TERT-LT-ST fibroblasts, dose response, cell-based, RAS-independent, luminescence (AID 1935); assay type: functional; settings: Homo sapiens;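 also: BJ fibroblasts immortalized with TERT plus LT and ST oncogenes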
[5] = cytotoxicity toward DRD oncogenic fibroblasts, dose response, cell-based, non-viral oncogenic, luminescence (AID 1934); assay type: functional; settings: Homo sapiens
BJ [6] = experiment: cells; assay type: functional, cell-based; settings: Homo sapiens
cells = assay type: functional
[7] = NIH-3T3 fibroblast cytotoxicity, dose response, cytotoxicity control, cell-based, fluorescence, Alamar Blue, secondary assay (AID 2327); assay type: functional;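 also: NIH-3T3 mouse fibroblasts cultured with fluconazole at 8 µg/mL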
[8] = Vero E6 cell cytotoxicity, dose response, cytotoxicity control for non-replicating M. tuberculosis project, secondary assay (AID 492998); assay type: functional, VeroE6; settings: Vero C1008
[9] = THP-1 cell cytotoxicity, dose response, cytotoxicity control for non-replicating M. tuberculosis project (AID 489025); assay type: functional
[10] = inhibitors of firefly luciferase expression or activity, dose response, H4 neuroglioma cells, luminescence (AID 1990); assay type: functional, cell-based
[11] = C. albicans growth with fluconazole, confirmation, fluorescence, retest (AID 2467); assay type: functional, cell-based
Paired box protein Pax-8 = Paired box protein Pax-8 (Homo sapiens, UniProt Q06710); experiment: inhibitors of PAX8-driven TPO luciferase reporter, dose response, RMG-I cells, cherry-pick (AID 687027); assay type: functional, cell-based;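 also: luciferase reporter driven by Pax8 target thyroperoxidase promoter measured by SteadyGlo luminescence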
[12] = Luminescence Cell-Based Dose Response HTS to Identify Inhibitors of 5'UTR Stem-Loop Driven Prion Protein mRNA Translation in H4 Neuroglioblastoma Cells. [Related pubchem assays: 1827 (Project Summary), 1813 (Primary HTS)]; assay type: functional
[13] = HepG2 cell cytotoxicity, dose response, cytotoxicity control for non-replicating M. tuberculosis project (AID 489018); assay type: functional; settings: Mycobacterium tuberculosis
[14] = inhibitors of SNCA 5'UTR-driven reporter translation, confirmation, H4 neuroglioma cells, luminescence (AID 1988); assay type: functional, cell-based
[15] = microbe, parasite or virus in culture; assay type: functional; settings: Mycobacterium tuberculosis
INS1 = experiment: beta cell apoptosis inhibitors, cytokine rescue, dose response, luminescence, retest (AID 449756); assay type: functional, cell-based; settings: Rattus norvegicus;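 also: cell death triggered by IL-1 beta plus TNF-alpha plus IFN-gamma mixture; protective hits raise ATP signal compared with cytokine alone wells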
[16] = molecular target: T1, DNA repair protein RAD52 homolog (Homo sapiens, UniProt P43351); assay type: functional, biochemical
T1 sequence (P43351 whole entry): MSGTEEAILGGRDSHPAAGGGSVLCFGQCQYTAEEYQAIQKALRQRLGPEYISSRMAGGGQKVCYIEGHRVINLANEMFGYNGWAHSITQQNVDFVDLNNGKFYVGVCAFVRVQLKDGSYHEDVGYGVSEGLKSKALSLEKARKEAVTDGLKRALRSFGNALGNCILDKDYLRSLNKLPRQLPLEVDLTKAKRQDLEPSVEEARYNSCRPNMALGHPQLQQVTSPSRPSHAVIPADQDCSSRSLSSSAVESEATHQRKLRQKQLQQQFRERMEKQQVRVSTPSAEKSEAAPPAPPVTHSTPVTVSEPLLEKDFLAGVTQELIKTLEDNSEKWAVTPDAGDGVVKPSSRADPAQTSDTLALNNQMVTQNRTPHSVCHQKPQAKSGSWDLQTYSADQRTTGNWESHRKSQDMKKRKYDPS

Paired box protein Pax-8, sequence (Q06710 whole entry): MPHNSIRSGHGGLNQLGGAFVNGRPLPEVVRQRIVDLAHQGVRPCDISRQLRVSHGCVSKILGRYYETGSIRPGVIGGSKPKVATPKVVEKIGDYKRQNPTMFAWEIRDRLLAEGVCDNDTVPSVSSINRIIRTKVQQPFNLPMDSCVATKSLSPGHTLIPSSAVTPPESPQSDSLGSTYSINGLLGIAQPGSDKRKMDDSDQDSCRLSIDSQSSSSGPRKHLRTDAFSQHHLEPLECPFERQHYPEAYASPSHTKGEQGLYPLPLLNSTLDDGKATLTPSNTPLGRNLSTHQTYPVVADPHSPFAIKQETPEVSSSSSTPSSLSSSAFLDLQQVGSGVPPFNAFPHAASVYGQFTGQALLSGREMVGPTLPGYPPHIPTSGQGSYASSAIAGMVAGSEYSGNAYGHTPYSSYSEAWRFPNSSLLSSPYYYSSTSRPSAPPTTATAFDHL

| SMILES | AC50 [1] | AC50 [2] | EC50 (BJ [3]) | EC50 (BJ [4]) | EC50 [5] | EC50 (BJ [6]) | IC50 (cells) | EC50 [7] | CC50 [8] | CC50 [9] | EC50 [10] | EC50 [11] | AC50 (Paired box protein Pax-8) | EC50 [12] | CC50 [13] | EC50 [14] | CC50 [15] | AC50 (INS1) | AC50 [16] |
| --- | --- | --- | --- | --- | --- | --- | --- | --- | --- | --- | --- | --- | --- | --- | --- | --- | --- | --- | --- |
| Cc1ccc(N/N=C(\Cc2nc3ccccc3[nH]2)c2ccccc2)cc1 | 0.385 µM (inconclusive) | 0.47 µM (active) |  |  |  |  |  |  |  |  |  |  |  |  |  |  |  |  |  |
| Cc1cccc(NC(=S)N/N=C/c2cccc(O)c2)c1C | 33.7 µM (active) | 1.15 µM (active) | 11.3 µM (active) | 2.91 µM (active) | 2.75 µM (active) | 26 µM (inconclusive) |  |  |  |  |  |  |  |  |  |  |  |  |  |
| Cc1cc(C)n(-c2nc(NCCN(C)C)c3c4c(sc3n2)CCCC4)n1 |  |  |  |  |  |  | 13.8 µM (active) | 8.65 µM (inconclusive) | 5.33 µM (active) | 12.7 µM (active) | 6.98 µM (active) | 11.3 µM (active) | 22.9 µM (active) | 8.38 µM (active) | 9.27 µM (active) | 8.07 µM (active) | 10.3 µM (active) | 8.03 µM (active) | 7 µM (active) |
